# Tests used:
# [1] = system: human cardiac fibroblasts; assay: Immunoblot of electron transport chain and mitochondrial clearance proteins; assay type: cell-based
# Method: (§1) Cell culture experiments utilizing NRTIs were of the following design. Cultures of either human lung or cardiac fibroblasts were cultivated according to standard culture protocols for these cells (Cristofalo, et al., Journal of Tissue Culture Methods 1980, 6:117-121). Parallel sets of cultures were maintained in normal growth media or in normal growth media with the addition of 1 nM rapamycin. Cultures were maintained with 1 nM rapamycin (Enzo Biologicals) for two weeks before exposure to NRTIs. Cell cultures were exposed to NRTIs at indicated concentrations in individual experiments (generally 10-20 μg/ml) for 7 days, with a change of media and fresh NRTIs at day 4. Mitochondrial measurements, bioanalyzer measurements, immunoblotting for protein expression and phosphorylation status, and assays for senescence were performed at the end of this 7-day period.
# Cell protein extracts were prepared by extracting with radioimmunoprecipitation assay (RIPA) buffer containing a protease inhibitor cocktail (Sigma-Aldrich) and phosphatase inhibitors, NaF and sodium orthovanadate. Protein concentration was quantified using a bicinchoninic acid (BCA) assay (Pierce Biotechnology). Western blot analysis was performed using 15 to 30 μg of protein extracts that were run on SDS-PAGE and transferred onto nitrocellulose (Biorad) membranes. Blots were incubated with antibodies specific for: beta-actin (Sigma-Aldrich), TFAm, parkin, p16, phospho(S82)HSP27, HSP27 (Santa Cruz Biotechnologies), p53, 21, catalase, MDM2 (EMD Millipore), VDAC, phospho(S235/236)-ribosomal protein S6, ribosomal protein S6, phospho(S166)-MDM2, phospho(5473)-AKT, AKT, beta-tubulin (Cell Signaling), p62 (Enzo Biologicals), IL-6 (NeoBiolab), lamin B1, PINK1, and Mitoprofile Total OXPHOS Cocktail (complex I-NDUFB8 subunit, CII-SDHB subunit, CIIIUQCRC2 subunit, and CIV-mitochondrial COX1 subunit) (Abcam) according to manufacturers' instructions. […] For co-immunoprecipitation, cell protein extracts were prepared in HNTG buffer containing a protease inhibitor cocktail and quantified using BCA assay. […]
# [2] = system: human cardiac fibroblasts; assay: Nanostring analysis of mRNA levels; assay type: cell-based; details: rapamycin
# Method: as §1
# Differences in mitochondria-related gene expression was examined using a nanostring approach which allows multiplex evaluation of mRNA species in the absence of amplification and provides a direct count of mRNA molecules. The mRNA levels paralleled the changes observed in protein levels as mRNA levels for all subunits increased in cells exposed to NRTIs while rapamycin decreased mRNA levels for all subunits (FIGS. 2D-2H).
# [3] = system: dermal atrophy and actinic keratosis; assay: Single site open label study, topical application in a patient; assay type: in vivo, human; details: 14 days of rapamycin treatment in an emulsified gel preparation, digital caliper
# Method: In certain embodiments, dermal atrophy is evaluated by measurement of the dermal layer utilizing a calibrated digital caliper measurement of the dermal layer. In other embodiments, improvement in seborrheic keratosis, lentigines, pseudoscars, coarse wrinkles, and epidermal thickening is evaluated through an investigator evaluation rating scale of 1-4, in which 1 is normal with no sign of lesion; 2 represents minor lesions; 3 represents lesions that are distinct features relative to normal skin; and 4 represents lesions that are of high severity. […] In yet other embodiments, lesions are evaluated by area measurement using manual measurement of the lesion or through analysis of images taken by investigators or research study staff.
# Patients presenting to a physician with a diagnosis of dermal atrophy, seborrheic keratosis, actinic keratosis, lentigines, senile pseudoscars, or coarse wrinkles were selected for administration of a composition of the invention. Dermal thickness was quantified using a Mitoutoyo digital caliper with certified accuracy to 0.001 mm. […]
# A single site open label study was performed. A patient presenting with an area of dermal atrophy and actinic keratosis on the hand was evaluated for application of Formulation R. the contralateral hand with similar dermal thickness but no actinic keratosis was used as a control. […]
# human fibroblasts = assay: Ethidium bromide mitochondrial stress in human fibroblasts
# Description: Human fibroblasts were exposed to ethidium bromide for 7 days and cell viability measured at that time.
# [4] = system: human cardiac fibroblasts; assay: Mitochondrial respiration, Seahorse XF24 Bioanalyzer; assay type: cell-based
# Method: Cell culture experiments utilizing NRTIs were of the following design. Cultures of either human lung or cardiac fibroblasts were cultivated according to standard culture protocols for these cells (Cristofalo, et al., Journal of Tissue Culture Methods 1980, 6:117-121). Parallel sets of cultures were maintained in normal growth media or in normal growth media with the addition of 1 nM rapamycin. Cultures were maintained with 1 nM rapamycin (Enzo Biologicals) for two weeks before exposure to NRTIs. […] Mitochondrial measurements, bioanalyzer measurements, immunoblotting for protein expression and phosphorylation status, and assays for senescence were performed at the end of this 7-day period. Mitochondrial function was measured using the XF cell mito stress test kit on a Seahorse XF24 Bioanalyzer (Seahorse Bioscience). Cells were seeded at a density of 15,000 cells per well in an XF24 microplate. Following acquisition, results were normalized based upon 10^6 cells counted using a Guava EasyCyte Mini (Millipore), where applicable. […] Respiration rates and proton leak were assessed as outlined in published methods (Hill, et al., Biological chemistry 2012, 393:1485-1512). Mitochondrial respiration was calculated based upon oxygen consumption rate measurements in triplicates from cells seeded in at least quadruplicates. Basal respiration represents the initial oxygen consumption rate measurements and maximal respiration represents the oxygen consumption rate measurements following FCCP addition. ATP-linked respiration is represented as the oligomycin-sensitive oxygen change to basal oxygen consumption rate. Proton leak represents the oligmycin insensitive oxygen consumption rate. […] All data was normalized to cell number by counting cells in each well at the completion of the mitochondrial assessments.
smiles,measurement,setting,value
CO[C@H]1C[C@@H]2CC[C@@H](C)[C@@](O)(O2)C(=O)C(=O)N2CCCC[C@H]2C(=O)O[C@H]([C@H](C)C[C@@H]2CC[C@@H](O)[C@H](OC)C2)CC(=O)[C@H](C)/C=C(\C)[C@@H](O)[C@@H](OC)C(=O)[C@H](C)C[C@H](C)/C=C/C=C/C=C/1C [rapamycin],"steady state levels of NDUFB8, SDHB, UQCRC2 and mt-CO1",[1]; cells treated with rapamycin vs control,lower
same,ETC protein levels on exposure to NRTIs,[1]; rapamycin-treated cells,not elevated
same,level of p62/SQSTM1,[1]; response to rapamycin,decreased
same,mRNA levels for ETC subunits,[2],decreased
same,dermal thickness in atrophic skin,[3],increases dermal thickness
same,survival of human fibroblasts following mitochondrial stress,human fibroblasts; ethidium bromide for 7 days,increases the survival
same,mitochondrial network following exposure to EthBr,human fibroblasts; rapamycin treated cells,able to maintain their mitochondrial network
same,mitochondrial network,"human fibroblasts; rapamycin treated cells, no toxin",normal mitochondrial network
same,basal respiration,[4]; rapamycin-treated (1 nM) vs standard culture,significantly lower
same,basal respiration when exposed to NRTIs,[4]; rapamycin-treated cells (1 nM),did not exhibit an increase
same,maximal respiration when exposed to NRTIs,[4]; rapamycin-treated cells (1 nM),did not exhibit an increase
same,proton leak following exposure to NRTIs,[4]; rapamycin-treated cells (1 nM),did not exhibit an increase
same,ATP-linked respiration,[4]; rapamycin-treated cultures (1 nM),reduced

# From US12714698B2, “Compositions and methods for treating or preventing dermal disorders” (Drexel University, priority 2015, dated 2026)
